For 27 compounds, IC50 results are on record in patent US7605156B2, “Methods for the use of inhibitors of cytosolic phospholipase A2” (Wyeth, priority 2001, dated 2009).

pIC50: −log10 of the molar value.

The target in the assay is T1, cPLA2 (Homo sapiens, UniProt P47712).
T1 sequence (P47712 1-749): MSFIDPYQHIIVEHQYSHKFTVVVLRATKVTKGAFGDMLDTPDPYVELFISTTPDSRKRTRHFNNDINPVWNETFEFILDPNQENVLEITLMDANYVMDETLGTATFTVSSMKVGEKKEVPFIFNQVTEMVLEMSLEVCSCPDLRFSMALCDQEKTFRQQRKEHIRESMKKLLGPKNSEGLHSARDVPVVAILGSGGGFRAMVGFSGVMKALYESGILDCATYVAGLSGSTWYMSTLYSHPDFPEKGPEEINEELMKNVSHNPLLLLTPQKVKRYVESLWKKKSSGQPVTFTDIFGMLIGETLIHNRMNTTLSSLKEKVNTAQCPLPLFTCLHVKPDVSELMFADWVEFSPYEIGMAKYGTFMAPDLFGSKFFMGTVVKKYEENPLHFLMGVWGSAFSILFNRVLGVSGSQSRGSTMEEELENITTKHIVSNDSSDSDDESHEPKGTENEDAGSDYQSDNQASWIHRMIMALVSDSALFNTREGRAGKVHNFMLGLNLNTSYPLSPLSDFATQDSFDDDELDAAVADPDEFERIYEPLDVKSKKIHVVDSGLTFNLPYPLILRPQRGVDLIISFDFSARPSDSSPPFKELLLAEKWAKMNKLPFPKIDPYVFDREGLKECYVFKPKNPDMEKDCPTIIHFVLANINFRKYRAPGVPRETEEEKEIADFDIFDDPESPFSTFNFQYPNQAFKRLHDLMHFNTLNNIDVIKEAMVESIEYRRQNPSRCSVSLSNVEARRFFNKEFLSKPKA
The assay is described as follows: Coumarine assay (hydrolysis of 7-hydroxycoumarinyl 6-heptenoate). Format: biochemical. Particulars: 60 μM 7-hydroxycoumarinyl 6-heptenoate, pH 7.5; read-out: Coumarin IC50.
As to `Cc1ccccc1S(=O)(=O)NCCc1c(CCCc2ccc(C(=O)O)cc2)c2cc(Cl)ccc2n1C(c1ccccc1)c1ccccc1` [Example 232], the pIC50 (in general, the negative decadic logarithm of the IC50, by convention in mol/L) is 6.89. Regarding `O=C(O)c1ccc(CCCc2c(CCNS(=O)(=O)c3ccccc3[N+](=O)[O-])n(C(c3ccccc3)c3ccccc3)c3ccc(Cl)cc23)cc1` [Example 264, 4-{3-[1-benzhydryl-5-chloro-2-(2-{[(2-nitrophenyl)sulfonyl]amino}ethyl)-1H-indol-3-yl]propyl}benzoic acid], the pIC50 was 6.40. The value for `O=C(O)c1ccc(OCCc2c(CCNS(=O)(=O)CCN3C[C@@H]4C[C@H]3CO4)n(C(c3ccccc3)c3ccccc3)c3ccc(Cl)cc23)cc1` [Example 251] was 5.82; that for `O=C(O)c1ccc(CCCc2c(CCNS(=O)(=O)c3cccc(-c4ccccc4)c3)n(C(c3ccccc3)c3ccccc3)c3ccc(Cl)cc23)cc1` [Example 206, 4-[3-(1-benzhydryl-2-{-2-[-(1,1′-biphenyl-3-ylsulfonyl)amino]ethyl}-5-chloro-1H-indol-3-yl)propyl]benzoic acid] was 6.30; that for `O=C(O)c1ccc(OCCc2c(CCNS(=O)(=O)CSc3ccc(F)c(Cl)c3)n(C(c3ccccc3)c3ccccc3)c3ccc(Cl)cc23)cc1` [Example 221, 4-[2-(1-benzhydryl-5-chloro-2-{2-[({[(3-chloro-4-fluorophenyl)thio]methyl}sulfonyl)amino]ethyl}-1H-indol-3-yl)ethoxy]benzoic acid] was 6.30.

Consider `O=C(O)c1ccc(OCCc2c(CCNS(=O)(=O)c3ccc(Cl)cc3Cl)n(C(c3ccccc3)c3ccccc3)c3ccc(Cl)cc23)cc1` [Example 159, 4-{2-[1-benzhydryl-5-chloro-2-(2-{[(2,4-dichlorophenyl)sulfonyl]amino}ethyl)-1H-indol-3-yl]ethoxy}benzoic acid], for which the pIC50 is 6.19. As for `O=C(O)c1ccc(CCCc2c(CCNS(=O)(=O)c3ccc(N4CCOCC4)nc3)n(C(c3ccccc3)c3ccccc3)c3ccc(Cl)cc23)cc1` [Example 181, 4-{3-[1-benzhydryl-5-chloro-2-(2-{[(6-morpholin-4-ylpyridin-3-yl)sulfonyl]amino}ethyl)-1H-indol-3-yl]propyl}benzoic acid], the pIC50 was 6.49.

As for `O=C(O)c1ccc(CCCc2c(CCNS(=O)(=O)c3ccccc3-c3ccccc3)n(C(c3ccccc3)c3ccccc3)c3ccc(Cl)cc23)cc1` [Example 157, 4-[3-(1-benzhydryl-2-{2-[(1,1′-biphenyl-2-ylsulfonyl)amino]ethyl}-5-chloro-1H-indol-3-yl)propyl]benzoic acid], the negative-log IC50 (pIC50) was 6.70. As to `O=S(=O)(NCCc1c(CCOc2ccc(-c3nn[nH]n3)cc2)c2cc(Cl)ccc2n1C(c1ccccc1)c1ccccc1)c1ccccc1Cl` [Example 193, N-[2-(1-benzhydryl-5-chloro-3-{2-[4-(2H-tetrazol-5-yl)-phenoxy]-ethyl}-1H-indol-2-yl)-ethyl]-2-chlorobenzenesulfonamide], the pIC50 is 5.74. The value for `O=C(O)c1ccc(CCCc2c(CCNS(=O)(=O)c3ccccc3C(F)(F)F)n(C(c3ccccc3)c3ccccc3)c3ccc(Cl)cc23)cc1` [Example 208] was 6.62. With `CSc1ccccc1S(=O)(=O)NCCc1c(CCCc2ccc(C(=O)O)cc2)c2cc(Cl)ccc2n1C(c1ccccc1)c1ccccc1` [Example 238], the negative-log IC50 (pIC50) is 6.60. As for “4-(3-{2-[2-({[2-(aminomethyl)phenyl]sulfonyl}amino)ethyl]-1-benzhydryl-5-chloro-1H-indol-3-yl}propyl)benzoic acid [Example 156]”, the pIC50 is 6.80.

`O=C(O)c1ccc(OCCc2c(CCNS(=O)(=O)c3ccc(N4CCOCC4)nc3)n(C(c3ccccc3)c3ccccc3)c3ccc(Cl)cc23)cc1` [Example 179, 4-{2-[1-benzhydryl-5-chloro-2-(2-{[(6-morpholin-4-ylpyridin-3-yl)sulfonyl]amino}ethyl)-1H-indol-3-yl]ethoxy}benzoic acid]: the pIC50 is 6.05. As for “4-[2-(1-benzhydryl-5-chloro-2-{2-[({2-[(3R,5S)-3,5-dimethylmorpholin-4-yl]ethyl}sulfonyl)amino]ethyl}-1H-indol-3-yl)ethoxy]benzoic acid [Example 250]”, the pIC50 is 5.68. In the case of `Cc1cc(C)c(S(=O)(=O)NCCc2c(CCCc3ccc(C(=O)O)cc3)c3cc(Cl)ccc3n2C(c2ccccc2)c2ccccc2)c(C)c1` [Example 267, 4-(3-{1-Benzhydryl-5-chloro-2-[2-(2,4,6-trimethyl-benzenesulfonylamino)-ethyl]-1H-indol-3-yl}-propyl)-benzoic acid] it was 7.13; in that of `N#Cc1ccccc1S(=O)(=O)NCCc1c(CCCc2ccc(C(=O)O)cc2)c2cc(Cl)ccc2n1C(c1ccccc1)c1ccccc1` [Example 155, 4-{3-[1-benzhydryl-5-chloro-2-(2-{[(2-cyanophenyl)sulfonyl]amino}ethyl)-1H-indol-3-yl]propyl}benzoic acid], 6.35. In the case of `O=C(O)c1ccc(CCCc2c(CCNS(=O)(=O)c3ccccc3OCc3ccccc3)n(C(c3ccccc3)c3ccccc3)c3ccc(Cl)cc23)cc1` [Example 187, 4-(3-{1-Benzhydryl-2-[2-(2-benzyloxy-benzenesulfonylamino)-ethyl]-5-chloro-1H-indol-3-yl}-propyl)benzoic acid] it was 6.70; in that of `O=C(O)c1ccc(OCCc2c(CCNS(=O)(=O)CCN3CCC(O)CC3)n(C(c3ccccc3)c3ccccc3)c3ccc(Cl)cc23)cc1` [Example 123, 4-[2-(1-Benzhydryl-5-chloro-2-{2-[2-(4-hydroxy-piperidin-1-yl)-ethanesulfonylamino]-ethyl}-1H-indol-3-yl)-ethoxy]-benzoic acid], 5.82. For `O=C(O)c1ccc(OCCc2c(CCNS(=O)(=O)c3ccc(Cl)c4nonc34)n(C(c3ccccc3)c3ccccc3)c3ccc(Cl)cc23)cc1` [Example 174, 4-{2-[1-benzhydryl-5-chloro-2-(2-{[(7-chloro-2,1,3-benzoxadiazol-4-yl)sulfonyl]amino}ethyl)-1H-indol-3-yl]ethoxy}benzoic acid], the pIC50 is 5.96.

With `CS(=O)(=O)c1ccc(S(=O)(=O)NCCc2c(CCOc3ccc(C(=O)O)cc3)c3cc(Cl)ccc3n2C(c2ccccc2)c2ccccc2)cc1` [Example 203, 4-(2-{1-benzhydryl-5-chloro-2-[2({[4-(methylsulfony)phenyl]sulfonyl}amino)ethyl]-1H-indol-3-yl}ethoxy)benzoic acid], the pIC50 is 6.16. `CC(CCl)c1ccccc1S(=O)(=O)NCCc1c(CCCc2ccc(C(=O)O)cc2)c2cc(Cl)ccc2n1C(c1ccccc1)c1ccccc1` (stereo not drawn) [Example 277, 4-(3-{1-Benzhydryl-5-chloro-2-[2-({[2-(2-chloro-1-methylethyl)phenyl]sulfonyl}amino)ethyl]-1H-indol-3-yl}propyl)benzoic acid]: the pIC50 was 6.22.

`O=C(O)c1ccc(CCCc2c(CCNS(=O)(=O)c3ccc(Cl)cc3Cl)n(C(c3ccccc3)c3ccccc3)c3ccc(Cl)cc23)cc1` [Example 152, 4-{3-[1-benzhydryl-5-chloro-2-(2-{[(2,4-dichlorophenyl)sulfonyl]-amino}ethyl)-1H-indol-3-yl]propyl}benzoic acid]: the pIC50 was 6.49. For the compound `O=C(O)c1ccc(CCCc2c(CCNS(=O)(=O)C3CC3)n(C(c3ccccc3)c3ccccc3)c3ccc(Cl)cc23)cc1` [Example 280, 4-[3-(1-benzhydryl-5-chloro-2-{2-[(cyclopropylsulfonyl)amino]-ethyl}-1H-indol-3-yl)propyl]benzoic acid], the pIC50 was 6.46. Turning to `O=C(O)c1ccc(OCCc2c(CCNS(=O)(=O)c3cccc(-c4ccccc4)c3)n(C(c3ccccc3)c3ccccc3)c3ccc(Cl)cc23)cc1` [Example 207, 4-[2-(1-benzhydryl-2-{2-[(1,1′-biphenyl-3-ylsulfonyl)amino]ethyl}-5-chloro-1H-indol-3-yl)ethoxy]benzoic acid], the pIC50 was 5.85. Take `Cc1ccc(S(=O)(=O)NCCc2c(CCOc3ccc(C(=O)O)cc3)c3cc(Cl)ccc3n2C(c2ccccc2)c2ccccc2)cc1Cl` [Example 260, 4-{2-[1-benzhydryl-5-chloro-2-(2-{[(3-chloro-4-methylphenyl)sulfonyl]amino}ethyl)-1H-indol-3-yl]ethoxy}benzoic acid]: the pIC50 was 6.43.

With `Cc1c(Cl)cccc1S(=O)(=O)NCCc1c(CCOc2ccc(C(=O)O)cc2)c2cc(Cl)ccc2n1C(c1ccccc1)c1ccccc1` [Example 241, 4-{2-[1-benzhydryl-5-chloro-2-(2-{[(3-chloro-2-methylphenyl)sulfonyl]amino}ethyl)-1H-indol-3-yl]ethoxy}benzoic acid], the pIC50 was 6.27. For the compound `O=C(O)c1ccc(OCCc2c(CCNS(=O)(=O)c3ccccc3Cl)n(C(c3ccccc3)c3ccccc3)c3ccc(Cl)cc23)cc1F` [Example 190, 4-(2-{1-Benzhydryl-5-chloro-2-[2-(2-chloro-benzenesulfonylamino)-ethyl]-1H-indol-3-yl}-ethoxy)-2-fluoro-benzoic acid], the pIC50 is 6.28.
